The record followed here is patent US20240262878A1, “PHOTOACTIVATABLE GASDERMIN PROTEINS” (THE BOARD OF TRUSTEES OF THE UNIVERSITY OF ILLINOIS, priority 2021, published 2024).

Data set [1] deals with bone marrow-derived macrophages (BMDM). Briefly: IL-1β cytokine release ELISA. It is filed as cell-based. The note with it: short-term LPS stimulation (5 minutes), mouse BMDM. How it is done: Cytokine Release. LPS-stimulated, IL-1β cytokine release from bone-marrow monocyte-derived macrophages ([…] mice) was measured using the QUANTIKINE® ELISA kit (R&D Systems). Cells were seeded in 96-well plates and pre-treated for 10 minutes with medium, 10 μM U73122, or 10 μM wortmannin. LPS (100 ng/μL, Invivogen) was then added to the cells for 5 minutes and the cell-free supernatants were recovered and subjected to the ELISA kit according to the manufacturer's instructions. The concentration of the samples in 96-well plates was measured via absorbance at 450 nm using an Epoch Microplate Spectrophotometer (Biotek Instruments). The OD values in six technical repeats each from a total of three mice (n=18) were converted into the […] levels reported via a power law fit of a serial dilution calibration curve.

Data set [2] deals with Hela cells. Briefly: PhoDer activation after pretreatment with PI3K/PLC modulators, calcium flare dynamics. It is filed as cell-based. Here is the method:
(§1) Cell Culture. HeLa and RAW264.7 cells were maintained in Dulbecco's Modified Eagle Medium (DMEM) medium supplemented with 10% fetal bovine serum (FBS) and 1% penicillin and streptomycin. Cells were transfected at 50%-70% confluency using LIPOFECTAMINE® 2000 transfection reagent and incubated for 24 hours before imaging. Cells were never serum-starved. To examine endogenous inflammatory activation, RAW264.7 cells were treated with 100 ng/μL lipopolysaccharide (LPS, Invivogen) at the beginning of each experiment. Pretreatment to bias membrane composition by phosphatidylinositol 4,5-bisphosphate (PIP2) modifying enzymes was performed by incubating Hela cells in Hanks' Balanced Salt Solution (HBSS) buffer with inhibitors at 37° C. for 10 minutes to prior imaging at the following concentrations: for phosphoinositide 3-kinase (PI3K), cells were treated 10 μM wortmannin (Tocris); and for phospholipase C (PLC), cells were treated with 10 μM U73122 (Tocris). Cells were removed from the incubator and allowed to come to thermal equilibrium before being imaged in HBSS buffer at room temperature.
(§2) Fluorescence Imaging, Optogenetic Activation, and Post-Processing. All epifluorescence imaging was performed on a customized Nikon Ti2-E microscope equipped with individual control over excitation (EX) and emission (EM) filters, a fast LED light source (Lumencor) with fluid-cooled EMCCD (Andor), motorized stage, and examined under a 40× or 100× oil immersion objective under live focus tracking. For RFP, excitation (EX) and emission (EM) filter combinations (maxima/bandwidth in nm) are indicated. Cells were imaged at 12-15 second intervals. Emission intensities of individual cells were background-subtracted before normalization to zero time point, when optogenetic activation began. In the optical setup, optogenetic activation of PhoDer was performed using an EX filter at 440/20 nm for 20-30 ms across whole fields of view. This replicated the progression of endogenous activation of GSDMD observed in LPS-stimulated RAW264.7 cells. […] Where applicable, inhibitors were treated at the indicated concentration for 15 minutes prior to imaging.
Fluctuation Analysis and Quantification. To automate the objective isolation and quantitation of calcium flares, a post-processing algorithm was developed based on principles and normalization scheme detailed in work on photochromic stochastic optical fluctuation imaging (pcSOFI) (Dedecker et al. (2012) Proc. Natl. Acad. Sci. USA 109: 10909-10914). Briefly, fluctuation caused by the flares generate high autocorrelation signals in time-averaged series and yield high contrast at locales of the greatest ion flux. To truly reflect the local flux change, it is then normalized to remove dependence on the number of biosensors reporting at the given location using a scheme detailed previously (Mo et al. (2017) Nat. Methods 14 (4): 427-434). Using Matlab, rolling-window mean and rolling-window autocorrelation values were calculated for each pixel over each entire fluorescence time course that contained possible flares. A heuristic approach to window size was taken and a range of window sizes were examined using examples where calcium flares were visually distinct prior to setting the window size for all analyses. All such fluctuation images were then verified manually against intensity time course to ensure bone fide flare detection; particularly strong and non-overlapping flares were chosen and added to calculate kinetic parameters. […]

For another data set, the system named is T1, full length human GSDMD.
T1 sequence: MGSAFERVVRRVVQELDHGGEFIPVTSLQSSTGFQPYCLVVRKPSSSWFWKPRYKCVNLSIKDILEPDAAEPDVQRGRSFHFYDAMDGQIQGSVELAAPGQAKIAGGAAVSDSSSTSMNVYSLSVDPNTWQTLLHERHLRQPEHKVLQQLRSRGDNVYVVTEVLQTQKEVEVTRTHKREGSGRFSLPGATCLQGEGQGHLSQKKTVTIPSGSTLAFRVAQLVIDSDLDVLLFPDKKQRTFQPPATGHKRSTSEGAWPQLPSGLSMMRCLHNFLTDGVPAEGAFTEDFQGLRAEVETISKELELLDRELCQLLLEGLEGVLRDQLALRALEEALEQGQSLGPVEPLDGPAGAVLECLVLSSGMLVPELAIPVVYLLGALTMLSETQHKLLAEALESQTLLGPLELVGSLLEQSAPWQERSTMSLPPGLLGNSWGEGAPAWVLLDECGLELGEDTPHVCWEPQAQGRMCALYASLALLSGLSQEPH

In data set [3] the test system is Hela cells. Briefly: Reversible optogenetics, cyclic activation. It is filed as cell-based. How it is done: Reversible Optogenetics. HeLa cells expressing a modified gasdermin protein of the invention (SEQ ID NO: 40) were subjected to cyclic activation. Whereas gasdermin lacking a photoactivatable linker has no ability to reverse and will kill the cell typically in 30 minutes or less, activation of reversible optogenetic gasdermin allow cells to stay alive for 2 hours or longer. Furthermore, upon closer examination, the cyclic activation pattern can clearly be detected in the response of these cells via autocorrelation function (FIG. 13). The “imprinting” of this cyclic pattern into the cellular response can only be possible if the optogenetic gasdermin protein is reversible.

Data set [4] relates to Hela cells. Briefly: Optogenetic activation of PhoDer, membrane-targeted jRCaMP1b calcium flare imaging and fluctuation analysis. It is filed as cell-based. The note with it: charge-altering mutations. Here is the method: Cloning. Cloning and subcloning were performed using the DH5a strain of E. coli. All mammalian constructs were cloned into the pcDNA3.0 vector with a modified multiple cloning site. Plasmids were generated as follows. Gasdermin D gene was obtained from Addgene. A diffusible optogenetic GSDMD, referred to herein as “PhoDer” and set forth in SEQ ID NO: 33, was constructed according to the reported domains structure by ligating three fragments into the pcDNA3.0 vector in one reaction via Gibson Assembly (New England BioLabs). For each fragment, PCR was specifically designed to create appropriate complementation. The jRCaMP1b gene, encoding a sensitive red protein calcium indicator, was obtained from Addgene. Membrane targeted calcium indicator jRCaMP1b was constructed by ligating a PCR fragment of the calcium indicator into the restriction enzyme sites BamHI and EcoRI in a modified pcDNA3.0 vector carrying a 5′ fragment encoding the N-terminal Lyn kinase localization sequence.
as §1, §2
Fluctuation Analysis and Quantification. To automate the objective isolation and quantitation of calcium flares, a post-processing algorithm was developed based on principles and normalization scheme detailed in work on photochromic stochastic optical fluctuation imaging (pcSOFI) (Dedecker et al. (2012) Proc. Natl. Acad. Sci. USA 109: 10909-10914). Briefly, fluctuation caused by the flares generate high autocorrelation signals in time-averaged series and yield high contrast at locales of the greatest ion flux. To truly reflect the local flux change, it is then normalized to remove dependence on the number of biosensors reporting at the given location using a scheme detailed previously (Mo et al. (2017) Nat. Methods 14 (4): 427-434). […]

Bounds are passed on as bounds.

On to `Cc1cc(C)c(S(=O)(=O)Nc2cccc(C(F)(F)F)c2)c(C)c1` [m-3m3FBS], for which the IL-1β release result in data set [1] is reported as “did not limit LPS-stimulated IL-1β release”. Moreover, the “calcium flare occurrence / calcium response with PI3K/PLC activators” value in the data set on Hela cells [2] was “inhibited flare occurrence for a short time”.

`COc1ccc2c(c1)CC[C@@H]1[C@@H]2CC[C@]2(C)[C@@H](NCCCCCCN3C(=O)C=CC3=O)CC[C@@H]12` [U73122]: the IL-1β release result in data set [1] is listed as “enhanced”. For the same molecule, the “pixel-wise calcium fluctuations, local pore activity per locale” value in the data set with Hela cells [2] (pretreated vs non-pretreated cells) is “highest activity per locale”. The “intracellular calcium progression after PhoDer activation” value with Hela cells [2] (pretreatment 10 μM) is given as “steep, cumulative rise in intracellular calcium”.

Consider caspase-1, for which the “micro-current recordings in a POPE/POPC planar lipid bilayer” value in the data set with full length human GSDMD is recorded as “upon the addition of activated GSDMD (mixture with caspase-1 to cleave the C-terminal autoinhibition domain), minute current fluctuations were detected”.

With 740 Y-P, the IL-1β release result in data set [1] is listed as “failed to elicit meaningful differences”. The “calcium flare occurrence / calcium response with PI3K/PLC activators” value in the data set on Hela cells [2] is listed as “failed to elicit meaningful differences”.

For `COC[C@H]1OC(=O)c2coc3c2[C@@]1(C)C1=C(C3=O)[C@@H]2CCC(=O)[C@@]2(C)C[C@H]1OC(C)=O` [wortmannin], in the data set on Hela cells [2] (pretreatment 10 μM, n=27), the “spatial extent flares reached” value is 12 μm.

B1: SEQ ID NO: 40: reversible optogenetic gasdermin variant, modified gasdermin protein of the invention (protein)
chain: MGSAFERVVRRVVQELDHGGEFIPVTSLQSSTGFQPYCLVVRKPSSSWFWKPRYKCVNLSIKDILEPDAAEPDVQRGRSFHFYDAMDGQIQGSVELAAPGQAKIAGGAAVSDSSSTSMNVYSLSVDPNTWQTLLHERHLRQPEHKVLQQLRSRGDNVYVVTEVLQTQKEVEVTRTHKREGSGRFSLPGATCLQGEGQGHLSQKKTVTIPSGSTLAFRVAQLVIDSDLDVLLFPDKKQRTFQPPATGHKRSTSEGAWPQLPSGLSMMRCLHNGGGGMLATTLERIEKNFVITDPRLPDNPIIFASDSFLQLTEYSREEILGRNCRFLQGPETDRATVRKIRDAIDNQTEVTVQLINYTKSGKKFWNVFHLQPMRDYKGDVQYFIGVQLDGTERLHGAAEREAVCLIKKTAFQIAEAANDENYFGGGGVPAEGAFTEDFQGLRAEVETISKELELLDRELCQLLLEGLEGVLRDQLALRALEEALEQGQSLGPVEPLDGPAGAVLECLVLSSGMLVPELAIPVVYLLGALTMLSETQHKLLAEALESQTLLGPLELVGSLLEQSAPWQERSTMSLPPGLLGNSWGEGAPAWVLLDECGLELGEDTPHVCWEPQAQGRMCALYASLALLSGLSQEPH
Turning to B1, in the data set on Hela cells [3] (HeLa cells, cyclic activation), the “time cells stay alive under activation” value is not below 2 h. For the same molecule, in the data set on Hela cells [3] (activations every 20 cycles), the “reversibility (autocorrelation function of cyclic activation)” value is given as “achieved”.

B2: R151E/R153E: mutant at another helical region of GSDMD N-terminal domain (protein, UniProt P57764 1-484, looked up, variant R151E R153E)
Gasdermin-D: MGSAFERVVRRVVQELDHGGEFIPVTSLQSSTGFQPYCLVVRKPSSSWFWKPRYKCVNLSIKDILEPDAAEPDVQRGRSFHFYDAMDGQIQGSVELAAPGQAKIAGGAAVSDSSSTSMNVYSLSVDPNTWQTLLHERHLRQPEHKVLQQLESEGDNVYVVTEVLQTQKEVEVTRTHKREGSGRFSLPGATCLQGEGQGHLSQKKTVTIPSGSTLAFRVAQLVIDSDLDVLLFPDKKQRTFQPPATGHKRSTSEGAWPQLPSGLSMMRCLHNFLTDGVPAEGAFTEDFQGLRAEVETISKELELLDRELCQLLLEGLEGVLRDQLALRALEEALEQGQSLGPVEPLDGPAGAVLECLVLSSGMLVPELAIPVVYLLGALTMLSETQHKLLAEALESQTLLGPLELVGSLLEQSAPWQERSTMSLPPGLLGNSWGEGAPAWVLLDECGLELGEDTPHVCWEPQAQGRMCALYASLALLSGLSQEPH
Regarding B2, the “calcium response of mutants at other putative lipid-binding sites” value in the data set with Hela cells [4] is “either encumbering or abrogating the calcium response”.
